According to PMC9881724, “Rational design of potent ultrashort antimicrobial peptides with programmable assembly into nanostructured hydrogels” (Frontiers in Chemistry, 2023):
Values after ≈ are worked out from the molar mass of the structure shown. Read-outs that look alike come from different tables or passages of the source. Residues, ends and D or L forms follow the SMILES beside them. No end group written: not given here. *: point of attachment. Fmoc = O=C(OCC1c2ccccc2-c2ccccc21)*

How the values were obtained:
[1] = tested on: Candida auris DSM 21092 (Fluconazole resistant); type: cell-based
Source text: (§1) Indolicidin (sequence: ILPWKWPWWPWRR-NH2, molecular weight: 1,906.3 g/mol) and FMOC-WWRR-NH2 (molecular weight: 924.1) were obtained from ChemPep (USA) as lyophilized powder and acetate salts with a purity >95%. Ethanol and Congo red were purchased from Sigma-Aldrich (Australia). Sodium chloride was purchased from Alfa Aesar (United Kingdom). The negative staining agent phosphotungstic acid was purchased from Proscitech (Australia). A Milipore filter system was utilized to obtain Milli-Q water. BD Difco Mueller Hinton Broth (MHB) and Sabouraud broth (SB) were purchased from Cell biosciences (Australia). Strains: E. coli NCTC 10418, P. aeruginosa ATCC 9721, E. faecalis ATCC 19433, S. aureus ATCC 25923, S. aureus ATCC BAA-1756 (methicillin resistant), Streptococcus pneumoniae ATCC 49619, Candida albicans ATCC 10231 and Candida auris DSM 21092 (Fluconazole resistant) were provided by the RMIT microbial culture collection. Bacterial strains were stored in 50% glycerol at −20 and −80°C.
(§2) Minimal inhibitory concentration (MIC) assays were performed following a standard broth dilution procedure ([Wiegand et al., 2008]) in which bacteria were grown in MHB and fungal in SB overnight. The overnight bacterial suspension was adjusted to 10^6 CFU/ml in broth according to MacFarlane standard. Bacterial solutions were mixed in 96-well plates with the peptide solution to reach final concentrations of peptides ranging from 1,082 to 2 μM, including inhibition control (Indolicidin), growth control, and sterility control. Within each MIC experiment, each peptide was tested in triplicate across this concentration range and repeated on 3 independent days. Media and glassware were sterilized at 120°C for 1 h with an autoclave prior to all bioassays.

[2] = tested on: Candida albicans ATCC 10231; type: cell-based
Source text: as §1, §2

[3] = tested on: P. aeruginosa ATCC 9721; type: cell-based
Source text: as §1, §2

[4] = tested on: E. coli NCTC 10418; type: cell-based
Source text: as §1, §2

[5] = Self-assembly and hydrogelation in water (electron microscopy, rheology, observation); type: physicochemical
Description: (§3) The peptides were prepared by mixing the lyophilized peptide directly with type 1 water, vortexed for a few seconds to obtain an isotropic solution and stored at 4°C–5°C in between experiments.
Carbon-coated grids (EMSCF200H-CU-TH, ProSciTech) were glow discharged to render them hydrophilic. A 1–5 μl aliquot of sample was applied to an upturned grid held in anti-capillary forceps, over moist filter paper, and left for 5 min over moistened filter paper to adsorb. Excess liquid was then removed with filter paper, the grid was then inverted onto a drop of 2% PTA stain, pH 6.9 on Parafilm, for 1 min. […] Images were recorded using a FEI Eagle 4 k × 4 k CCD camera and AnalySIS v3.2 camera control software (Olympus).
A laboratory-built humidity-controlled vitrification system was used to prepare the samples for Cryo-TEM. […] Images were recorded using a FEI Eagle 4 k × 4 k CCD camera at a range of magnifications using AnalySIS v3.2 camera control software (Olympus).
Rheology was undertaken on a calibrated rheometer (Anton Paar MCR 301, Anton Paar Pty. Ltd. Austria) fitted with a 15 mm cone plate fixture with a cone angle of 1° (CP15-1, Anton Paar Pty. Ltd. Austria). […] All measurements were carried out in triplicate with the mean and standard deviation shown, calculated and plotted in GraphPad Prism.

[6] = tested on: E. faecium; type: cell-based
Description: as §2

[7] = tested on: S. aureus ATCC BAA-1756 (methicillin resistant); type: cell-based
Source text: as §1, §2

[8] = tested on: E. faecalis ATCC 19433; type: cell-based
Source text: as §1, §2

[9] = tested on: S. aureus ATCC 25923; type: cell-based; conditions: ATCC 25923, 1 h
Source text: as §1, §2

[10] = tested on: Streptococcus pneumoniae ATCC 49619; type: cell-based
Source text: as §1, §2

[11] = tested on: S. aureus Methicillin resistant; experiment: Fluorescence assisted cell sorting (FACS) live/dead assay; type: cell-based; conditions: overnight 36-37°C, SYTO 9/propidium iodide
Description: (§4) FACS assay was performed following the LIVE/DEAD™ BacLight™ Bacterial Viability Kit (L7012) instructions and stablished procedures ([Berney et al., 2007]; [Robertson et al., 2019]), in which bacteria were grown in Mueller Hinton Broth and fungal in Sabouraud Broth overnight to a late–log phase. Then, 900 μl of the cell suspension was added to 100 μl of five different concentrations of peptides solution and incubated overnight at 36°C–37°C. On the next day, the suspension was centrifuged at 10,000 × g for 10 min and the supernatant fraction was removed from the samples. The pellets were resuspended with 1 ml of PBS buffer and incubated at room temperature for 1 h, mixing every 15 min. The sample was centrifuged at 10,000 × g for 10 min, the supernatant removed followed by the resuspension of the pellet in 1 ml of PBS. The washing steps were repeated twice. To perform the staining of the cells, equal volumes of SYTO® 9 and propidium iodide were combined in a microfuge tube and 3 µl of the dye mixture was added to each microbial suspension. The sample was incubated at room temperature in the dark for 15 min. The evaluation of cell viability was performed through the calculation of the red to green fluorescence ratio to determine the proportion of live cells in a sample.

[12] = tested on: E. coli; experiment: as above; type: cell-based; conditions: overnight 36-37°C, SYTO 9/propidium iodide
Description: as §4

[13] = tested on: C. auris Fluconazole resistant; experiment: as above; type: cell-based; conditions: overnight 36-37°C, SYTO 9/propidium iodide
Description: as §4

[14] = Peptide assembly state from ATR-FTIR arginine side-chain vibrations; type: physicochemical; conditions: ATR-FTIR 25°C
Description: as §3
Data was recorded at 25°C using a Tensor-II spectrometer (Bruker, Germany) equipped with a Bio-ATR attachment (Bruker, Germany) by directly depositing the samples on the ATR crystal as previous reported by our group ([Dharmadana et al., 2019]). Spectra were collected over 32 scans within 4,000–400 cm^−1 wavenumber range at a resolution of 4 cm^−1. Associated water signal was subtracted from the resulting spectra, and secondary derivatives were calculated using OPUS software (Bruker, Germany).

[15] = type: physicochemical
Description: as §3

[16] = broth dilution in MHB, 10^6 CFU/ml, peptide 1,082 to 2 μM, triplicate on 3 independent days
[17] = broth dilution in Sabouraud broth, peptide 1,082 to 2 μM, triplicate on 3 independent days

## WPWRR-NH2 [Indolicidin C-terminus, WPWRR-NH2, reference compound]
[1]; DSM 21092, 1 h
  MIC C. auris Fluconazole resistant: 313 µM
[2]; ATCC 10231, 1 h
  MIC C. albicans: 78 µM
[3]; ATCC 9721, 1 h
  MIC P. aeruginosa: 313 µM
[4]; NCTC 10418, 1 h
  MIC E. coli: 313 µM

## N=C(N)NCCC[C@H](NC(=O)[C@H](CCCNC(=N)N)NC(=O)[C@H](Cc1c[nH]c2ccccc12)NC(=O)[C@@H]1CCCN1C(=O)[C@H](Cc1c[nH]c2ccccc12)NC(=O)OCC1c2ccccc2-c2ccccc21)C(N)=O [P-Priscilicidin, Fmoc-WPWRR-NH2] (Fmoc-WPWRR-NH2)
[5]; 10% wt in water, 1 month incubation, in coexistence with globular oligomers
  Nanostructures imaged by electron microscopy: nanoribbons
[5]; peptide in water, oscillatory rheology G'/G''
  State of aqueous samples (rheology summary): colloidal solutions of low viscosity
[6]; 1 h
  MIC E. faecium: 61 µM (≈ 62.3 µg/mL)
[7]; ATCC BAA-1756, 1 h
  MIC S. aureus Methicillin resistant: 61 µM (≈ 62.3 µg/mL)
[1]; DSM 21092, 1 h
  MIC C. auris Fluconazole resistant: 31 µM (≈ 31.7 µg/mL)
[2]; ATCC 10231, 1 h
  MIC C. albicans: 15 µM (≈ 15.3 µg/mL)
[8]; ATCC 19433, 1 h
  MIC E. faecalis: 61 µM (≈ 62.3 µg/mL)
[3]; ATCC 9721, 1 h
  MIC P. aeruginosa: 61 µM (≈ 62.3 µg/mL)
[9]
  MIC S. aureus: 31 µM (≈ 31.7 µg/mL)
[4]; NCTC 10418, 1 h
  MIC E. coli: 122 µM (≈ 125 µg/mL)
[10]; ATCC 49619, 1 h
  MIC S. pneumoniae: 31 µM (≈ 31.7 µg/mL)
[11]; 12 µM peptide
  Dead %: 5%
  Live %: 95%
[11]; 24 µM peptide
  Dead %: 7%
  Live %: 95%
[11]; 98 µM peptide
  Dead %: 83%
  Live %: 19%
[11]; 196 µM peptide
  Dead %: 97%
  Live %: 4%
[11]
  FACS minimum concentration showing over 90% dead microbes, S. aureus Methicillin resistant: 196 µM
[12]; 12 µM peptide
  Dead %: 2%
  Live %: 93%
[12]; 24 µM peptide
  Dead %: 33%
  Live %: 57%
[12]; 49 µM peptide
  Dead %: 48%
  Live %: 33%
[12]; 98 µM peptide
  Dead %: 44%
  Live %: 35%
[12]; 196 µM peptide
  Dead %: 89%
  Live %: 2%
[12]
  FACS minimum concentration showing over 90% dead microbes, E. coli: 196 µM
[13]; 12 µM peptide
  Dead %: 33%
  Live %: 67%
[13]; 24 µM peptide
  Dead %: 95%
  Live %: 4%
[13]; 49 µM peptide
  Dead %: 98%
  Live %: 2%
[13]; 98 µM peptide
  Dead %: 98%
  Live %: 1%
[13]; 196 µM peptide
  Dead %: 98%
  Live %: 2%
[14]; 1 % wt in water, 30 days after mixing
  Interpretation for peptide assembly according to MD: monomer/globular oligomer
[14]; 1 % wt in water, time after mixing 0
  Interpretation for peptide assembly according to MD: monomer/globular oligomer
[14]; 5 % wt in water, 30 days after mixing
  Interpretation for peptide assembly according to MD: monomer/globular oligomer
[14]; 5 % wt in water, time after mixing 0
  Interpretation for peptide assembly according to MD: monomer/globular oligomer
[14]; 10 % wt in water, 30 days after mixing
  Interpretation for peptide assembly according to MD: monomer/globular oligomer
[14]; 10 % wt in water, time after mixing 0
  Interpretation for peptide assembly according to MD: monomer/globular oligomer

## CC[C@H](C)[C@H](N)C(=O)N[C@@H](CC(C)C)C(=O)N1CCC[C@H]1C(=O)N[C@@H](Cc1c[nH]c2ccccc12)C(=O)N[C@@H](CCCCN)C(=O)N[C@@H](Cc1c[nH]c2ccccc12)C(=O)N1CCC[C@H]1C(=O)N[C@@H](Cc1c[nH]c2ccccc12)C(=O)N[C@@H](Cc1c[nH]c2ccccc12)C(=O)N1CCC[C@H]1C(=O)N[C@@H](Cc1c[nH]c2ccccc12)C(=O)N[C@@H](CCCNC(=N)N)C(=O)N[C@@H](CCCNC(=N)N)C(N)=O [Indolicidin, reference compound]
[6]; [16]
  MIC E. faecium: 33 µM (≈ 62.9 µg/mL)
[7]; second value of cell S. aureus/Methicillin resistant, broth dilution in MHB, 10^6 CFU/ml, peptide 1,082 to 2 μM, triplicate on 3 independent days
  MIC S. aureus Methicillin resistant: 33 µM (≈ 62.9 µg/mL)
[1]; [17]
  MIC C. auris Fluconazole resistant: 16 µM (≈ 30.5 µg/mL)
[2]; [17]
  MIC C. albicans: 4 µM (≈ 7.63 µg/mL)
[8]; [16]
  MIC E. faecalis: 33 µM (≈ 62.9 µg/mL)
[3]; [16]
  MIC P. aeruginosa: 33 µM (≈ 62.9 µg/mL)
[4]; [16]
  MIC E. coli: 16 µM (≈ 30.5 µg/mL)
[10]; [16]
  MIC S. pneumoniae: 16 µM (≈ 30.5 µg/mL)

## N=C(N)NCCC[C@H](NC(=O)[C@H](CCCNC(=N)N)NC(=O)[C@H](Cc1c[nH]c2ccccc12)NC(=O)[C@H](Cc1c[nH]c2ccccc12)NC(=O)OCC1c2ccccc2-c2ccccc21)C(N)=O [Priscilicidin, Fmoc-WWRR-NH2] (Fmoc-WWRR-NH2)
[15]
  Concentration easily solubilised in pure water: at least 10 % w/w
[6]; 1 h
  MIC E. faecium: 34 µM (≈ 31.4 µg/mL)
[7]; ATCC BAA-1756, 1 h
  MIC S. aureus Methicillin resistant: 34 µM (≈ 31.4 µg/mL)
[1]; DSM 21092, 1 h
  MIC C. auris Fluconazole resistant: 17 µM (≈ 15.7 µg/mL)
[2]; ATCC 10231, 1 h
  MIC C. albicans: 8 µM (≈ 7.39 µg/mL)
[8]; ATCC 19433, 1 h
  MIC E. faecalis: 68 µM (≈ 62.8 µg/mL)
[3]; ATCC 9721, 1 h
  MIC P. aeruginosa: 68 µM (≈ 62.8 µg/mL)
[9]
  MIC S. aureus: 17 µM (≈ 15.7 µg/mL)
[4]; NCTC 10418, 1 h
  MIC E. coli: 68 µM (≈ 62.8 µg/mL)
[10]; ATCC 49619, 1 h
  MIC S. pneumoniae: 17 µM (≈ 15.7 µg/mL)
